These results are taken from US20240041830A1, “CIRCULATING BIOMARKERS OF RESPONSE TO PD-1/PD-L1 BLOCKADE AND GSK-3 INHIBITION” (Brown University, priority 2022, published 2024).

One test relates to TALL-104. Kind of test: microarray analysis. The format is cell-based, human. Conditions: 1 μM, 24 hours, vs untreated. As for the experimental part: Microarrays. A total of 0.5×10^6 tumor cells (HCT-116, HT-29, KM12C) were plated in a 6-well plate and allowed to adhere overnight before 24-hour treatment, as indicated. Then, 1×10^6 immune cells (NK92, TALL-104) were plated and treated with elraglusib as indicated for twenty-four h. RNA was isolated from cell pellets in batches of six using a RNeasy Plus Mini Kit (Cat #74134, Qiagen, Hilden, Germany). Acceptable RNA concentration and quality were verified with Nanodrop and Bioanalyzer measurements. GeneChip™ Human Transcriptome Array 2.0 assays were conducted according to manufacturer instructions in two batches using randomized samples to limit batch effects (Cat #902162, Applied Biosystems, Waltham, MA, USA). Applied Biosystems Transcriptomic Analysis Console (TAC) software (RRID: SCR_016519) was used to calculate fold changes in gene expression relative to the untreated control cells. Values were considered statistically significant for p values<0.05.
Microarray analysis was used to obtain insights into gene expression changes in immune cell lines post-GSK-3 inhibition with elraglusib. Immune cell lines (TALL-104, NK-92) were treated with elraglusib at IC50 concentrations or DMSO as vehicle control for twenty-four hours and treated versus untreated samples were compared in triplicate using microarray analysis. FIG. 11. Results were calculated using a fold-change (FC) cutoff of >1.5, <−1.5, and a minimum p-value of <0.05. NK-92 cells had sixty-one differentially expressed genes post-treatment (FIG. 3D). the inventors observed an increase in genes that promote immune cell proliferation (TNFSF14, RAB38) and control immune cell adhesion and migration (WNK1) post-elraglusib treatment.
TABLE 12 description. TALL-104 immune cell microarray analysis. TALL-104 immune cells were treated with 1 μM elraglusib for 24 hours and treated versus untreated control samples were compared in triplicate via microarray analysis (N=3). Table showing differentially expressed genes of interest with their corresponding fold changes, p values, descriptions, and functions. Genes are ordered by fold change and were calculated using a fold change cutoff of >1.5, <−1.5, and a minimum p value of <0.05.

The next test deals with 93T449 liposarcoma. In words: Luminex cytokine profiling. The format is cell-based. Particulars: 0.5 μM, twenty-four hours. As for the experimental part:
(§1) Human cytokine profiling. Human cell line culture supernatants were analyzed using an R&D systems Human Premixed Multi-Analyte Kit (R&D Systems, Inc., Minneapolis, MN, USA) and a Luminex 200 (RRID: SCR_018025) Instrument (LX200-XPON-RUO, Luminex Corporation, Austin, TX, USA) according to the manufacturer's instructions. Sample levels of TNF-α, 4-1BB/TNFRSF9/CD137, IL-8/CXCL8, Ferritin, IFN-β, IL-10, CCL2/JE/MCP-1, VEGF, CXCL13/BLC/BCA-1, IFN-γ, CCL20/MIP-3 α, CCL3/MIP-1 α, CCL22/MDC, CCL4/MIP-1 β, Fas Ligand/TNFSF6, IL-17/1L-17A, IL-2, BAFF/BLyS/TNFSF13B, GM-CSF, CXCLS/ENA-78, TRANCE/TNFSF11/RANK L, CXCL9/MIG, G-CSF, IFN-γ R1/CD119, VEGFR3/Flt-4, C-Reactive Protein/CRP, CXCL11/I-TAC, IL-21, CXCL14/BRAK, IL-6, Fas/TNFRSF6/CD95, TRAIL R3/TNFRSF10C, IL-4, CCL5/RANTES, PD-L1/137-H1, CCL7/MCP-3/MARC, Chitinase 3-like 1, CXCL10/IP-10/CRG-2, IL-1 μ/IL-1F2, IL-7, Prolactin, CCL8/MCP-2, TRAIL R2/TNFRSF10B, M-CSF, IL-15, Granzyme B, IFN-α, TREM-1, IL-12/1L-23 p40, TRAIL/TNFSF10, CCL11/Eotaxin, and 1L-18/1L-1F4. Quantitative analysis with 6 standards and a minimum of 50 counts per bead region was used with the Luminex to generate analyte values reported as picograms/milliliter (pg/mL). Sample concentrations less than the lower limit of detection for each particular analyte were recoded as the lower limit value divided by 10. Sample concentrations above the upper limit of detection for a particular analyte were recoded as the upper limit of detection.
(§2) Saos-2 osteosarcoma and 93T449 liposarcoma cell lines were pretreated at IC50 with elraglusib. The cells were harvested for Western blot analysis after 48 hours of treatment. Both cancer cell lines as well as TALL-104 T-cells and NK-92 NK cells were treated with 0.5 μM elraglusib for twenty-four hours and harvested for Luminex cytokine profiling.

Another test relates to Saos-2 osteosarcoma. Kind of test: Luminex cytokine profiling. Conditions: 0.5 μM, twenty-four hours. Format: cell-based. As to the method: as §1, §2

In the case of `Cn1cc(C2=C(c3coc4ccc(F)cc34)C(=O)NC2=O)c2cc3c(cc21)OCO3` [elraglusib], in the test with TALL-104, the “ACVR1B Fold Change” value was −1.61, the “BCL2A1 Fold Change” value came to 1.63, the “CAMK1D Fold Change” value is given as −2.5 and the “CCL3 Fold Change” value was found to be 1.52. In the test on TALL-104, the “CCR8 Fold Change” value was −2.14, the “CD84 Fold Change” value is −1.53, the “CKS1B Fold Change” value was determined as 1.6 and the “DUSP6 Fold Change” value was −1.66. Further, in the test on TALL-104, the “HSPA1A Fold Change” value is reported as −1.63, the “KIF7 Fold Change” value is 1.56, the “ORAI3 Fold Change” value is listed as 1.51 and the “PPARA Fold Change” value is on record as −1.54. In the test with TALL-104, the “PTPN3 Fold Change” value was −1.56, the “PTPN14 Fold Change” value is reported as −1.62, the “RNY4 Fold Change” value is listed as 2.19 and the “RNY5 Fold Change” value worked out at 1.66. Further, in the test with TALL-104, the “STX19 Fold Change” value amounted to 1.58, the “UBE3A Fold Change” value is given as −1.73 and the “VAMP8 Fold Change” value was 1.56. Moreover, in the test with 93T449 liposarcoma, the TGF-α entry was “increase”. The TGF-α entry in the test with Saos-2 osteosarcoma is “increase”. Also, the IL-6 entry with Saos-2 osteosarcoma (only Saos-2) is reported as “increase”.
